Test [1] deals with HCV replicon. In words: HCV replicon FRET assay. It is filed as cell-based. The conditions noted are these: Hepatitis C virus, FRET assay, read-out: EC50*. The procedure, abridged:
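HCV replicon cells, with or without Renilla luciferase reporter, incubated with titrated compounds at 37 °C; Alamar blue read for cytotoxicity. NS3 protease activity read from lysates with 20 μM EDANS/DABCYL FRET peptide (340/490 nm, kinetic), or by Dual-Glo luciferase. Background from highest protease-inhibitor wells; EC50 = 50% signal reduction.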
For orientation: A replicon is a self-replicating genome or part of one, used to study replication in cells.

For test [2], the target named is T1, HCV NS5B (Hepatitis C virus genotype 1b, UniProt Q9WMX2).
T1 construct: The protein was expressed with an 18 amino acid C-terminal truncation to enhance the solubility; made in house; host or cells: E. coli BL21 (DE3), pET21a
T1 sequence (Q9WMX2 2420-2992): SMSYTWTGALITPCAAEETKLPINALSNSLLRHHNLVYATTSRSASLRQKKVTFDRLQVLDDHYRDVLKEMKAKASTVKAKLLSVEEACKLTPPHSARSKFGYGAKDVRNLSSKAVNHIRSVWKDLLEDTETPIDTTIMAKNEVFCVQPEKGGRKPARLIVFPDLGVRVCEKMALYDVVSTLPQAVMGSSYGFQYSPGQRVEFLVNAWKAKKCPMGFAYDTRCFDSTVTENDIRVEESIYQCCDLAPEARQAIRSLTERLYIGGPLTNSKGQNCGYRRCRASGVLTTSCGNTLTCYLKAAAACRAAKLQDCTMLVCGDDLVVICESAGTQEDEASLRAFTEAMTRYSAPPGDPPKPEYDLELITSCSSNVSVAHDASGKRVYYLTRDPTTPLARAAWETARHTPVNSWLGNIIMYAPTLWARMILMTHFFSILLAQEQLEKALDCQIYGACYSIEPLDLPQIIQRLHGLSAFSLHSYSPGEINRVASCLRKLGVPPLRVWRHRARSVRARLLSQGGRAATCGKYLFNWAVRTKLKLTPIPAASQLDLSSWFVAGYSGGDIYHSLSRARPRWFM
As to the kind of experiment: HCV NS5B RdRp enzyme assay (preincubation protocol). It is filed as biochemical. The procedure, abridged:
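C-terminally truncated (Δ18) genotype 1b NS5B from E. coli, 14 nM, added to compound, then polyA template (0.2 nM), 3H-UTP (0.29 μM) and oligo-dT12 primer precaptured on streptavidin SPA beads. 4 h at 30 °C, pH 7.5, 2% DMSO; SPA readout; IC50 from seven concentrations by logistic fit.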

Structures are written as SMILES. Where two headings read alike, the source gives them in different places. Where only a bound is given, the exact number is not on record here.

Take `C[C@@H]1CN(C(=O)c2ccccc2)CCN1C(=O)C1=Cc2ccccc2-c2c(C3CCCCC3)c3ccc(C(=O)O)cc3n2C1`: in test [1] (Table 1), the EC50 (usually the concentration at which the effect is half-maximal) was 70 to 1000 nM. In addition, the IC50 (as a rule, the concentration that inhibits the measured activity by half) in test [2] (Table 1, read-out: IC50*) lay in the range of 10 to 1000 nM.

As for `O=C(O)c1ccc2c(C3CCCCC3)c3n(c2c1)CC(C(=O)N1CCN(C(=O)N2CCOCC2)CC1)=Cc1ccccc1-3`, the EC50 in test [1] (Table 1) lay in the range of 70 to 1000 nM. For the same compound, the IC50 in test [2] (Table 1, read-out: IC50*) lay in the range of 10 to 1000 nM.

As to `COc1ccc2c(c1)C=C(C(=O)N1CCN(S(=O)(=O)N(C)C)CC1)Cn1c-2c(C2CCCCC2)c2ccc(C(=O)NS(=O)(=O)N(C)C)cc21`, in test [1] (Table 1), the EC50 was 70 to 1000 nM. Also, the IC50 in test [2] (Table 1, read-out: IC50*) lay in the range of 10 to 1000 nM.

For `CN(C)S(=O)(=O)NC(=O)c1ccc2c(C3CCCCC3)c3n(c2c1)CC(C(=O)N1CCN(S(C)(=O)=O)CC1)=Cc1cc(OCc2ccccc2)ccc1-3`, in test [1] (Table 1), the EC50 is 70 to 1000 nM. In addition, in test [2] (Table 1, read-out: IC50*), the IC50 lay within 10 to 1000 nM.

With `CC(=O)OCC(=O)N1CCN(C(=O)C2=Cc3ccccc3-c3c(C4CCCCC4)c4ccc(C(=O)NS(=O)(=O)N5CCOCC5)cc4n3C2)CC1`, the EC50 in test [1] (Table 1) was in the range of 70 to 1000 nM. For the same compound, the IC50 in test [2] (Table 1, read-out: IC50*) lay in the range of 10 to 1000 nM.

As to `CN(C)S(=O)(=O)NC(=O)c1ccc2c(C3CCCCC3)c3n(c2c1)CC(C(=O)N1CCN(c2nccs2)CC1)=Cc1ccccc1-3`, the EC50 in test [1] (Table 1) lay in the range of 70 to 1000 nM. In test [2] (Table 1, read-out: IC50*), the IC50 is 10 to 1000 nM.

Consider `CN(C)S(=O)(=O)NC(=O)c1ccc2c(C3CCCCC3)c3n(c2c1)CC(C(=O)N1CCn2cnnc2C1)=Cc1ccccc1-3`, for which, in test [1] (Table 1), the EC50 was 1000 to 10000 nM. In addition, the IC50 in test [2] (Table 1, read-out: IC50*) is 10 to 1000 nM.

Take `CN(C)S(=O)(=O)NC(=O)c1ccc2c(C3CCCCC3)c3n(c2c1)CC(C(=O)N1CCN(c2ncncn2)CC1)=Cc1ccccc1-3`: the EC50 in test [1] (Table 1) lay within 70 to 1000 nM. For the same compound, the IC50 in test [2] (Table 1, read-out: IC50*) lay within 10 to 1000 nM.

Consider `CC(=O)N1CCN(C(=O)C2Cc3ccccc3-c3c(C4CCCCC4)c4ccc(C(=O)NS(=O)(=O)N(C)C)cc4n3C2)CC1` (stereo not shown), for which the EC50 in test [1] (Table 1) was 70 to 1000 nM. For the same compound, the IC50 in test [2] (Table 1, read-out: IC50*) fell in the range of 10 to 1000 nM.

With `CN(C)S(=O)(=O)NC(=O)c1ccc2c(C3CCCCC3)c3n(c2c1)CC(C(=O)N1CCN(S(C)(=O)=O)CC1)Cc1ccccc1-3` (stereo not shown), the EC50 in test [1] (Table 1) is 70 to 1000 nM. The IC50 in test [2] (Table 1, read-out: IC50*) fell in the range of 10 to 1000 nM.

Turning to `O=C1Cn2c(c(C3CCCCC3)c3ccc(C(=O)NS(=O)(=O)N4CCOCC4)cc32)-c2ccccc2N1`, in test [1] (Table 1), the EC50 lay in the range of 70 to 1000 nM. Moreover, the IC50 in test [2] (Table 1, read-out: IC50*) fell in the range of 10 to 1000 nM.

With `O=C(NS(=O)(=O)C(F)(F)F)c1ccc2c(C3CCCCC3)c3n(c2c1)CC(C(=O)N1CCOCC1)=Cc1ccccc1-3`, the EC50 in test [1] (Table 1) is 1000 to 10000 nM. Moreover, the IC50 in test [2] (Table 1, read-out: IC50*) lay within 10 to 1000 nM.

Turning to `O=C(NS(=O)(=O)C(F)(F)F)c1ccc2c(C3CCCCC3)c3n(c2c1)CC(C(=O)N1CCOCC1)Cc1ccccc1-3` (stereo not shown), the half-maximal effective concentration (EC50) in test [1] (Table 1) fell in the range of 70 to 1000 nM. Moreover, in test [2] (Table 1, read-out: IC50*), the 50% inhibitory concentration (IC50) lay in the range of 10 to 1000 nM.

In the case of `O=C(NS(=O)(=O)N1CCOCC1)c1ccc2c(C3CCCCC3)c3n(c2c1)CC(C(=O)N1CCOCC1)=Cc1ccccc1-3`, the EC50 in test [1] (Table 1) lay within 70 to 1000 nM. Further, in test [2] (Table 1, read-out: IC50*), the IC50 is 10 to 1000 nM.

Regarding `O=C(NS(=O)(=O)N1CCOCC1)c1ccc2c(C3CCCCC3)c3n(c2c1)CC(C(=O)N1CCOCC1)Cc1ccccc1-3` (stereo not shown), in test [1] (Table 1), the concentration giving a half-maximal response (EC50) was in the range of 70 to 1000 nM. In addition, in test [2] (Table 1, read-out: IC50*), the IC50 lay within 10 to 1000 nM.

As to `CN1CCN(S(=O)(=O)NC(=O)c2ccc3c(C4CCCCC4)c4n(c3c2)CC(C(=O)N2CCOCC2)=Cc2ccccc2-4)CC1`, the EC50 in test [1] (Table 1) fell in the range of 70 to 1000 nM. The IC50 in test [2] (Table 1, read-out: IC50*) fell in the range of 10 to 1000 nM.

`O=C(NS(=O)(=O)N1CCOCC1)c1ccc2c(C3CCCCC3)c3n(c2c1)CC(C(=O)N1CCC(N2CCOCC2)CC1)=Cc1ccccc1-3`: in test [1] (Table 1), the EC50 lay in the range of 70 to 1000 nM. Moreover, the IC50 in test [2] (Table 1, read-out: IC50*) was 10 to 1000 nM.

On to `C[C@@H]1CN(C(=O)C2=Cc3ccccc3-c3c(C4CCCCC4)c4ccc(C(=O)NS(=O)(=O)N5CCOCC5)cc4n3C2)C[C@H](C)O1`, for which, in test [1] (Table 1), the EC50 fell in the range of 70 to 1000 nM. The IC50 in test [2] (Table 1, read-out: IC50*) was in the range of 10 to 1000 nM.

Take `CC(=O)N1CCN(C(=O)C2=Cc3ccccc3-c3c(C4CCCCC4)c4ccc(C(=O)NS(=O)(=O)N5CCOCC5)cc4n3C2)CC1`: in test [1] (Table 1), the EC50 was in the range of 70 to 1000 nM. In addition, in test [2] (Table 1, read-out: IC50*), the IC50 was 10 to 1000 nM.

`COC(=O)C1=Cc2ccccc2-c2c(C3CCCCC3)c3ccc(C(=O)NS(=O)(=O)N4CCOCC4)cc3n2C1`: the EC50 in test [1] (Table 1) fell in the range of 70 to 1000 nM. The IC50 in test [2] (Table 1, read-out: IC50*) fell in the range of 10 to 1000 nM.

For `COC(=O)c1ccc2c(C3CCCCC3)c3n(c2c1)CC(NC(=O)N1C[C@@H](C)O[C@@H](C)C1)Cc1cc(OC)ccc1-3` (stereo partly shown), the half-maximal effective concentration (EC50) in test [1] (Table 1a) fell in the range of 30 to 1000 nM. For the same compound, the IC50 in test [2] (Table 1a, read-out: IC50*) was in the range of 10 to 1000 nM.

For `COc1ccc2c(c1)C=C(C(=O)N1CCC(C(=O)N3CCOCC3)CC1)Cn1c-2c(C2CCCCC2)c2ccc(C(=O)NS(=O)(=O)N(C)C)cc21`, in test [1] (Table 1a), the EC50 was in the range of 30 to 1000 nM. Besides, the IC50 in test [2] (Table 1a, read-out: IC50*) lay within 10 to 1000 nM.

Regarding `COc1ccc2c(c1)C=C(C(=O)N1CCOC(CNC(C)=O)C1)Cn1c-2c(C2CCCCC2)c2ccc(C(=O)NS(=O)(=O)N(C)C)cc21` (stereo not shown), the EC50 in test [1] (Table 1a) fell in the range of 30 to 1000 nM. Moreover, in test [2] (Table 1a, read-out: IC50*), the IC50 is under 20 nM.

These data come from patent US7473688B2, “Indolobenzazepine HCV NS5B inhibitors” (Bristol-Myers Squibb Company, priority 2005, dated 2009).
